Laboratory results published in patent US20220273752A1, “MODULATION OF DENDRITIC CELL FUNCTION BY THE PHOSPHOLIPID MESSENGER LPA” (Cornell University, priority 2019, published 2022).

How the values were obtained:
[1] = tested on: bone marrow-derived dendritic cells (BMDCs); test: Antigen presentation: OVA-pulsed BMDCs co-cultured with CFSE-labeled OT-II T cells; format: cell-based, murine; conditions: 100 μM LPA, 6 hours, then OVA 3 hours, OT-II T cell proliferation 3 days later
Description: FIG. 3A-3C illustrate that LPA inhibits the antigen-presenting capacity of dendritic cells. Bone marrow-derived dendritic cells (BMDCs) were exposed to 100 μM LPA for 6 hours and then pulsed with full-length ovalbumin (OVA) for 3 hours.
Cells were washed and co-cultured with OVA-specific OT-II T cells labeled with carboxyfluorescein succinimidyl ester (CFSE, which stains intracellular molecules, typically lysine residues). T cell proliferation was assessed by FACS 3 days later.
FIG. 3C graphically illustrates the division index of proliferating cells as determined by FlowJo analysis. ****P<0.0001.

dendritic cells = test: Genome-wide transcriptional profiling of dendritic cells by RNA-seq; format: cell-based, murine; conditions: 100 μM LPA
Description: RNA was obtained from LPA-treated bone marrow-derived DCs (BMDCs) and RNA sequencing was performed. The RNA-sequencing data and Ingenuity Pathway Analyses (IPA) was performed on the RNA from LPA-treated bone marrow-derived DCs (BMDCs).

bone marrow-derived DCs = test: qPCR and Multiplex cytokine assays in BMDCs treated with LPA and Tunicamycin; format: cell-based, mouse
Description: FIG. 4A-4L graphically illustrate that induction of a set of highly tumorigenic and immunomodulatory genes is mainly PERK-dependent in LPA-exposed dendritic cells undergoing endoplasmic reticulum (ER) stress. Bone marrow-derived dendritic cells (BMDCs) from the indicated genotypes were left untreated or were incubated with LPA (100 μM), Tunicamycin (TM, 1 μg/ml) or with the combination of both for 6 hours. Gene expression was determined by qPCR. In all cases data, was normalized to endogenous Actb levels in each sample. These findings have further been confirmed using primary splenic dendritic cells and with an independent ER stressor, Thapsigargin (extensive data not shown). ***P<0.0005, ***P<0.0001. The serine/threonine-protein kinase/endoribonuclease inositol-requiring enzyme 1 α (IRE1α) in humans is encoded by the ERNI gene, and expression of the IRE1α protein is activated during endoplasmic reticulum (ER) stress. TM is a pharmacological ER stressor that causes protein glycosylation defects. FIG. 4A graphically illustrates expression of IL-1, in bone marrow-derived DCs from Ern1^f/f or Ern1^f/f Vav1-Cre (Ern1 knockout) mice with or without co-treatment by ER stressor Tunicamycin (TM) and/or physiological concentrations of LPA. […]

BMDCs, sDCs and pDCs = test: IFN-β ELISA in DCs stimulated with TLR agonists; format: cell-based, murine; conditions: Poly (I:C), LPS or CpG ODN1585, LPA 10 uM and 100 uM
Description: FIG. 12A-12D illustrate that LPA represses IFN-β production by diverse DC types. Splenic dendritic cells (sDCs), bone marrow dendritic cells (BMDCs) and plasmacytoid dendritic cells (pDCs) were stimulated with Poly (I:C) (a high molecular weight, synthetic analog of double-stranded RNA (dsRNA) that is a potent inducer of interferon), LPS (lipopolysaccharide) or CpG ODN1585 (a synthetic immunostimulatory oligonucleotide) in the presence or absence of LPA (10 uM and 100 uM). IFN-β protein expression levels were determined by ELISA. **P<0.001, ***P<0.0005, ****P<0.0001. FIG. 12A illustrates IFN-β protein expression in splenic DCs (sDCs) after treatment with LPA and/or Poly (I:C). FIG. 12B illustrates IFN-β protein expression in bone marrow dendritic cells (BMDCs) after treatment with LPA and/or Poly (I:C). FIG. 12C illustrates IFN-β protein expression in bone marrow dendritic cells (BMDCs) after treatment with LPS and/or LPA. FIG. 12D illustrates IFN-β protein expression in plasmacytoid DCs (pDCs) after treatment with ODN1585 and/or LPA.
These effects also occurred in diverse DC types such as BMDCs, splenic DCs (sDCs) and plasmacytoid DCs (pDCs) during stimulation through Toll-like Receptors (TLRs) or upon exposure to cancer cells treated with inhibitors of poly ADP-ribose polymerase (PARP) that induce DNA damage. […] The structure of Talazoparib is shown below.

lysophosphatidic acid [LPA]
antigen-presenting capacity of dendritic cells [1]: inhibits
number of genes demonstrating severe deregulation (dendritic cells): ~4,000 genes
production of IL-1b, IL-6, VEGF-a, LIF, M-CSF, GRO-a (IL-8) and MIP1-a (bone marrow-derived DCs; BMDCs co-treated with Tunicamycin (TM) and LPA (100 µM), Multiplex cytokine assays): significant PERK-dependent overproduction
expression of genes encoding IL-6, IL-1b, Arginase, Cox-2 and Vegf-A (bone marrow-derived DCs; ER-stressed DCs simultaneously exposed to LPA, qPCR): potent upregulation
IFN-β protein levels upon TLR agonist stimulation (BMDCs, sDCs and pDCs): decreased levels
